{
  "source": "BindingDB's records for patent US10081629",
  "about": "(Jiangsu Hengrui Medicine, 2018)",
  "target": "T1, Prostaglandin E synthase (Homo sapiens, UniProt O14684)",
  "T1 sequence (O14684 whole entry)": "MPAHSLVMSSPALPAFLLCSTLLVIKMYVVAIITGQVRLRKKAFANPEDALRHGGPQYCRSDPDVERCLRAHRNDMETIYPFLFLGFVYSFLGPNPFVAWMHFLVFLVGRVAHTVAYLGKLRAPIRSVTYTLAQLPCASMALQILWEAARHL",
  "experiment": "mPGES1 enzyme assay",
  "method": "mPGES1 was diluted with assay buffer and added into plate at 49 μL/well supplemented with 1 μL of compound (the final concentration of each compound at seven gradient concentrations was 10000 nM, 1000 nM, 100 nM, 10 nM, 1 nM, 0.1 nM and 0.01 nM). […] Then, each well was added with 53.8 μL of 6 mg/mL SnCl2 to quench the reaction. The sample was diluted with dilute buffer at 1:400. 10 μl of diluted sample, 5 μL PGE2-d2 and 5 μL anti-PGE2 Cryptate were added to a black 384-well plate, and incubated at 4° C. overnight. HTRF was determined using Flexstation, and the IC50 of the compounds was obtained by data processing software.",
  "data": [
    {"smiles": "COCCn1c(C2=CC=C(C(F)(F)F)CC2)cc2cc(NC(=O)c3cc(CNC(=O)C(C)(C)F)cnc3C(F)F)ccc21", "note": "[US10081629, Example 27]", "values": [
      {"measurement": "IC50", "value": 13.4, "unit": "nM"}
    ]}
  ]
}
